From patent US11478460B2, “Diaryl substituted 6,5-fused ring compounds as C5aR inhibitors” (CHEMOCENTRYX, INC., priority 2017, dated 2022)
pIC50: −log10 of the molar value.

Each compound was assayed against C5aR (Homo sapiens (Human), UniProt P21730) (assay: Chemotaxis assay using U937 cells (C5aR mediated migration)). Settings: read-out: Mig IC50.
Sequence of C5aR (P21730 whole entry): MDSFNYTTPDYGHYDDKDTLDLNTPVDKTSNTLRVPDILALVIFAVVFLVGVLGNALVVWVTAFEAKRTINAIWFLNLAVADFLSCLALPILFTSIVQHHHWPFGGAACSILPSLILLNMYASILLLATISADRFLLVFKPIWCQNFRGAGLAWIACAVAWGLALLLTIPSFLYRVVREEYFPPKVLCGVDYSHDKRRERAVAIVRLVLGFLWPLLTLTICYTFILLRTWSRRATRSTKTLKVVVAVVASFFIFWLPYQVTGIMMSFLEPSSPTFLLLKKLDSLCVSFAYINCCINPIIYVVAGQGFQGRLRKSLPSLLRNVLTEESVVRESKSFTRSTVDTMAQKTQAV
Assay type: cell-based
Method in brief: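 U937 monocytic cells, pretreated overnight with 0.5 mM cyclic AMP, placed at 100,000 cells in the upper well above 5 μm polycarbonate filters. Lower well held 0.03 nM C5a plus compound in HBSS/1% FBS; after 1.5 h at 37° C migrated cells counted directly or by CyQuant, giving IC50.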
Work on `Cc1cccc(OCC(C)C)c1-n1nc2c(c1-c1cc(F)c(NC(N)=O)cc1F)CN(c1nccn3ccnc13)CC2` [Example 1.142] yielded a pIC50 of 7.30 to 8.30. `NC(=O)Nc1cc(F)c(-c2c3c(nn2-c2ccccc2OCC(F)(F)F)CCN(c2ncc(Cl)cc2Cl)C3)cc1F` [Example 1.143] was tested, and the pIC50 was no less than 8.30. `CCc1cccc(CC)c1-n1nc2c(c1-c1cc(F)c(NC(N)=O)cc1F)CN(C(CC)c1ccccc1C(F)(F)F)CC2` (centres unmarked) [Example 1.144] gave a pIC50 of no less than 8.30. For `CCC(c1ccccc1)N1CCc2nn(-c3c(C)cccc3OCC(C)C)c(-c3cc(F)c(NC(N)=O)cc3F)c2C1` (centres unmarked) [Example 1.145], the pIC50 was no less than 8.30. Compound `Cc1cccc(C)c1-n1nc2c(c1-c1cc(F)c(NC(N)=O)cc1F)CN(C(C)(C)c1ccccc1)CC2` [Example 1.146] has a pIC50 of no less than 8.30. `CCc1cccc(CC)c1-n1nc2c(c1-c1cc(F)c(NC(N)=O)cc1OC)CN(c1ncc(Cl)cc1Cl)CC2` [Example 1.147] was tested, and the pIC50 was no less than 8.30. `CCc1cccc(CC)c1-n1nc2c(c1-c1cc(F)c(NC(N)=O)cc1F)CN(C(C(=O)OC)c1ccccc1)CC2` (centres unmarked) [Example 1.148] was tested, and the pIC50 was no less than 8.30. In the case of `CCc1cccc(CC)c1-n1nc2c(c1-c1cc(F)c(NC(N)=O)cc1F)CN(C(C)(C)c1ccccc1OC)CC2` [Example 1.149], the pIC50 was no less than 8.30. `CCc1cccc(CC)c1-n1nc2c(c1-c1cc(F)c(NC(N)=O)cc1F)CN(C(CC)c1ccccc1F)CC2` (centres unmarked) [Example 1.150] was tested, and the pIC50 was no less than 8.30. In the case of `CCc1cccc(CC)c1-n1nc2c(c1-c1cc(F)c(NC(N)=O)cc1F)CN(Cc1ccccc1)C(C)C2` (centres unmarked) [Example 1.151], the pIC50 was no less than 8.30. `CCc1cccc(CC)c1-n1nc2c(c1-c1cc(F)c(NC(N)=O)cc1F)CN(C(C)c1ccc(F)cc1)CC2` (centres unmarked) [Example 1.152] showed a pIC50 of no less than 8.30. `Cc1cccc(C)c1-n1nc2c(c1-c1cc(F)c(NC(N)=O)cc1F)CN(c1ncc(C(C)C)cn1)CC2` [Example 1.153] gave a pIC50 of 7.30 to 8.30. With `Cc1cccc(C)c1-n1nc2c(c1-c1cc(F)c(NC(N)=O)cc1F)CN(c1ncc(C(F)(F)F)cn1)CC2` [Example 1.154] the pIC50 was no less than 8.30. Work on `Cc1cccc(C)c1-n1nc2c(c1-c1cc(F)c(NC(N)=O)cc1F)CN(c1ncc(Cl)cn1)CC2` [Example 1.155] yielded a pIC50 of 7.30 to 8.30. `CCc1cccc(CC)c1-n1nc2c(c1-c1cc(F)c(NC(N)=O)cc1F)CN(C(C)(C)c1cccc(OC)c1)CC2` [Example 1.156] was tested, and the pIC50 was no less than 8.30. With `CCc1cccc(CC)c1-n1nc2c(c1-c1cc(F)c(NC(N)=O)cc1F)CN(C(C)(C)c1ccc(OC)cc1)CC2` [Example 1.157] the pIC50 was no less than 8.30. Compound `Cc1cnc(N2CCc3nn(-c4c(C)cccc4OCC(C)C)c(-c4cc(F)c(NC(N)=O)cc4F)c3C2)nc1` [Example 1.158] has a pIC50 of no less than 8.30. With `Cc1cccc(OCC(C)C)c1-n1nc2c(c1-c1cc(F)c(NC(N)=O)cc1F)CN(c1ncc(F)cn1)CC2` [Example 1.159] the pIC50 was no less than 8.30. Work on `Cc1cccc(OCC(C)C)c1-n1nc2c(c1-c1cc(F)c(NC(N)=O)cc1F)CN(c1ncccn1)CC2` [Example 1.160] yielded a pIC50 of no less than 8.30. In the case of `CCc1cccc(CC)c1-n1nc2c(c1-c1cc(F)c(NC(N)=O)cc1F)CN(C(C)c1ccccc1F)CC2` (centres unmarked) [Example 1.161], the pIC50 was no less than 8.30. Compound `CCc1cccc(CC)c1-n1nc2c(c1-c1cc(F)c(NC(N)=O)cc1F)CN(C(CC)c1ccccc1)CC2` (centres unmarked) [Example 1.162] has a pIC50 of no less than 8.30. Compound `CCc1cccc(CC)c1-n1nc2c(c1-c1cc(F)c(NC(N)=O)cc1F)CN(C(C)(C)c1cccc(C(F)(F)F)c1)CC2` [Example 1.163] has a pIC50 of no less than 8.30. `Cc1cccc(OCC(C)C)c1-n1nc2c(c1-c1cc(F)c(NC(N)=O)cc1F)CN(c1ncc(C(F)(F)F)cn1)CC2` [Example 1.164] showed a pIC50 of no less than 8.30. Compound `Cc1cccc(C)c1-n1nc2c(c1-c1cc(F)c(NC(N)=O)cc1F)CN(c1ncc(C(C)C)cc1F)CC2` [Example 1.165] has a pIC50 of no less than 8.30. For `Cc1cccc(OCC(C)C)c1-n1nc2c(c1-c1cc(F)c(NC(N)=O)cc1F)CN(c1ncc(C(C)C)cn1)CC2` [Example 1.166], the pIC50 was no less than 8.30. For `NC(=O)Nc1cc(F)c(-c2c3c(nn2-c2ccccc2OC(F)(F)F)CCN(c2ncc(Cl)cc2Cl)C3)cc1F` [Example 1.167], the pIC50 was no less than 8.30.
